From patent US7605163B2, “Benzoyl-piperazine derivatives” (Hoffmann-La Roche Inc., priority 2003, dated 2009)

Target: T1, mGlyT-1b (Mus musculus, UniProt P28571)
T1 construct: host or cells: Flp-in-CHO cells
T1 sequence (P28571 1-651 isoform P28571-2): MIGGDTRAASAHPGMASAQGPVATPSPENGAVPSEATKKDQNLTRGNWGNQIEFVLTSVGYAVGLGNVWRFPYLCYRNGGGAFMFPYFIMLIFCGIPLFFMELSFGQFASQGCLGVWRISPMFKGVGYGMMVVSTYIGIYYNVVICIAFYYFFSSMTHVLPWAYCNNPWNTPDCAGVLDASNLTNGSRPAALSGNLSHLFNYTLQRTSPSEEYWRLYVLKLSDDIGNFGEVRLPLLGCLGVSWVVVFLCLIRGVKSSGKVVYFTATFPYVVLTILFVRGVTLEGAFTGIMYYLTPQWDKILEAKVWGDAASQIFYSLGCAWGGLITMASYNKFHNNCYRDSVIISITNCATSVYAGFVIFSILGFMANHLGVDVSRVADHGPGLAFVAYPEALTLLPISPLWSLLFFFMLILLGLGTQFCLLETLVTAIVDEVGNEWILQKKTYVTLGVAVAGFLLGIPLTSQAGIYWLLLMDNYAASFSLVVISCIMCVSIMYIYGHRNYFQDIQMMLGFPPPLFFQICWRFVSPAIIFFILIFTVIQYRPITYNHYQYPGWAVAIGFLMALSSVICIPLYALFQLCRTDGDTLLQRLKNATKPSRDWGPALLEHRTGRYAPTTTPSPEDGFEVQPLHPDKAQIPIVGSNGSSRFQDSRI
Test: Glycine Uptake Inhibition Assay (mGlyT-1b)
Assay type: cell-based
Conditions: [3H]-glycine uptake inhibition at GlyT-1, Flp-in-CHO cells transfected with mGlyT-1b cDNA
Procedure: DMEM complete medium: Nutrient mixture F-12 (Gibco Life-technologies), fetal bovine serum (FBS) 5%, (Gibco life technologies), Penicillin/Streptomycin 1% (Gibco life technologies), Hygromycin 0.6 mg/ml (Gibco life technologies), Glutamine 1 mM Gibco life technologies)
Uptake buffer (UB): 150 mM NaCl, 10 mM Hepes-Tris, pH 7.4, 1 mM CaCl2, 2.5 mM KCl, 2.5 mM MgSO4, 10 mM (+) D-glucose. Flp-in™-CHO (Invitrogen Cat n^o R758-07) cells stably transfected with mGlyT1b cDNA.
Glycine Uptake Inhibition Assay (mGlyT-1b)
On day 1 mammalian cells, (Flp-in™-CHO), transfected with mGlyT-1b cDNA, were plated at the density of 40,000 cells/well in complete F-12 medium, without hygromycin in 96-well culture plates. On day 2, the medium was aspirated, and the cells were washed twice with uptake buffer (UB). The cells were then incubated for 20 min at 22° C. with either (i) no potential competitor, (ii) 10 mM non-radioactive glycine, (iii) a concentration of a potential inhibitor. A range of concentrations of the potential inhibitor was used to generate data for calculating the concentration of inhibitor resulting in 50% of the effect (e.g. IC50, the concentration of the competitor inhibiting glycine uptake of 50%).
A solution was then immediately added containing [^3H]-glycine 60 nM (11-16 Ci/mmol) and 25 μM non-radioactive glycine. The plates were incubated with gentle shaking, and the reaction was stopped by aspiration of the mixture and washing (three times) with ice-cold UB. The cells were lysed with scintillation liquid, shaken 3 hours and the radioactivity in the cells counted using a scintillation counter.

Compound	IC50
CCCOc1ccc([N+](=O)[O-])cc1C(=O)N1CCN(c2ccc(C(F)(F)F)cc2)CC1 [Example 72, (5-Nitro-2-propoxy-phenyl)-[4-(4-trifluoromethyl-phenyl)-piperazin-1-yl]-methanone]	0.026 µM
CNS(=O)(=O)c1ccc(OC(C)C)c(C(=O)N2CCN(c3ccc(C#N)cc3F)CC2)c1 [compound 506]	0.046 µM
CS(=O)(=O)c1ccc(OCC2CC2)c(C(=O)N2CCN(c3c(F)cc(C#N)cc3F)CC2)c1 [compound 165]	0.47 µM
CNS(=O)(=O)c1ccc(OCC(C)C)c(C(=O)N2CCN(c3ccc(C#N)cc3F)CC2)c1 [compound 504]	0.025 µM
CC(Oc1ccc(S(C)(=O)=O)cc1C(=O)N1CCN(c2ccc(C(F)(F)F)cc2)CC1)C(F)(F)F (stereo not drawn) [compound 301]	0.03 µM
CC(Oc1ccc(S(C)(=O)=O)cc1C(=O)N1CCN(c2ccc(C(F)(F)F)cc2F)CC1)C(F)(F)F (racemic) [compound 302]	0.013 µM
CS(=O)(=O)c1ccc(OC2CCC2)c(C(=O)N2CCN(c3ccc(S(=O)(=O)C4CC4)cc3F)CC2)c1 [compound 576]	0.039 µM
CCCCOc1ccc([N+](=O)[O-])cc1C(=O)N1CCN(c2ccc(C(F)(F)F)cc2)CC1 [Example 66, (2-Butoxy-5-nitro-phenyl)-[4-(4-trifluoromethyl-phenyl)-piperazin-1-yl]-methanone]	0.032 µM
CCC(C)Oc1ccc(S(C)(=O)=O)cc1C(=O)N1CCN(c2ccc(C(F)(F)F)c(F)c2)CC1 (racemic) [compound 325]	0.033 µM
CC(Oc1ccc(S(C)(=O)=O)cc1C(=O)N1CCN(c2cccc(C(F)(F)F)n2)CC1)C(F)(F)F (racemic) [compound 459]	0.04 µM
CS(=O)(=O)c1ccc(OCC2CCC2)c(C(=O)N2CCN(c3ccc(C#N)cc3F)CC2)c1 [compound 138]	0.017 µM
CCC(C)Oc1ccc([N+](=O)[O-])cc1C(=O)N1CCN(c2ccc(C(F)(F)F)cc2)CC1 (racemic) [Example 78, Rac-(2-sec-Butoxy-5-nitro-phenyl)-[4-(4-trifluoromethyl-phenyl)-piperazin-1-yl]-methanone]	0.012 µM
CNS(=O)(=O)c1ccc(OCC2CCC2)c(C(=O)N2CCN(c3ccc(C#N)c(F)c3)CC2)c1 [compound 481]	0.03 µM
CNS(=O)(=O)c1ccc(OCC(C)(C)C)c(C(=O)N2CCN(c3ccc(C#N)cc3F)CC2)c1 [compound 505]	0.024 µM
O=C(c1cc([N+](=O)[O-])ccc1OCC1CCC1)N1CCN(c2ccc(C(F)(F)F)cc2)CC1 [Example 64, (2-Cyclobutylmethoxy-5-nitro-phenyl)-[4-(4-trifluoromethyl-phenyl)-piperazin-1-yl]-methanone]	0.025 µM
CC(C)(C)Oc1ccc(S(C)(=O)=O)cc1C(=O)N1CCN(c2cc(F)c(S(C)(=O)=O)cc2F)CC1 [compound 249]	0.032 µM
CNS(=O)(=O)c1ccc(OCC2CC2)c(C(=O)N2CCN(c3ccc(C(C)=O)cc3F)CC2)c1 [compound 519]	0.035 µM
CS(=O)(=O)c1ccc(OC2CCCC2)c(C(=O)N2CCN(c3ccc(C#N)cn3)CC2)c1 [compound 411]	0.045 µM
CC(Oc1ccc(S(C)(=O)=O)cc1C(=O)N1CCN(c2ncc(C(F)(F)F)cc2F)CC1)C(F)(F)F (racemic) [compound 438]	0.047 µM
CS(=O)(=O)c1ccc(OCC(F)(F)C(F)(F)F)c(C(=O)N2CCN(c3ccc(C#N)c(F)c3F)CC2)c1 [compound 184]	0.022 µM
CC(Oc1ccc(S(C)(=O)=O)cc1C(=O)N1CCN(c2ccc(C(F)(F)F)cn2)CC1)C(F)(F)F (single isomer, unassigned) [compound 465]	0.04 µM
O=C(c1cc([N+](=O)[O-])ccc1OC1CCCC1)N1CCN(c2ccc(C(F)(F)F)cc2)CC1 [Example 71, (2-Cyclopentyloxy-5-nitro-phenyl)-[4-(4-trifluoromethyl-phenyl)-piperazin-1-yl]-methanone]	0.008 µM
CS(=O)(=O)c1ccc(OCC2CCC2)c(C(=O)N2CCN(c3cc(F)c(C#N)c(F)c3)CC2)c1 [compound 148]	0.036 µM
CS(=O)(=O)c1ccc(OCC(F)(F)C(F)F)c(C(=O)N2CCN(c3c(F)cc(C#N)cc3F)CC2)c1 [compound 215]	0.049 µM

Compound	IC50
CC(C)(C)COc1ccc(S(C)(=O)=O)cc1C(=O)N1CCN(c2ccc(C(F)(F)F)cc2F)CC1 [compound 294]	0.037 µM
CC(C)(C)COc1ccc([N+](=O)[O-])cc1C(=O)N1CCN(c2ccc(C(F)(F)F)cc2)CC1 [Example 68, [2-(2,2-Dimethyl-propoxy)-5-nitro-phenyl]-[4-(4-trifluoromethyl-phenyl)-piperazin-1-yl]-methanone]	0.008 µM
CC(=O)c1ccc(N2CCN(C(=O)c3cc(S(C)(=O)=O)ccc3OCC(C)C)CC2)cc1F [compound 372]	0.006 µM
CC(Oc1ccc(S(C)(=O)=O)cc1C(=O)N1CCN(c2ccc(C(F)(F)F)cn2)CC1)C(F)(F)F (single isomer, unassigned) [compound 464]	0.02 µM
CC(Oc1ccc(S(C)(=O)=O)cc1C(=O)N1CCN(c2ccc(Cl)c(Cl)c2)CC1)C(F)(F)F (racemic) [compound 258]	0.086 µM
CC(C)(C)Oc1ccc(S(C)(=O)=O)cc1C(=O)N1CCN(c2c(F)cc(S(C)(=O)=O)cc2F)CC1 [compound 250]	0.061 µM
CC(C)(C)Oc1ccc(S(C)(=O)=O)cc1C(=O)N1CCN(c2ccc(C(F)(F)F)cc2F)CC1 [compound 247]	0.03 µM
CS(=O)(=O)c1ccc(OCC2CC2)c(C(=O)N2CCN(c3ccc(Cl)cc3C#N)CC2)c1 [compound 228]	0.047 µM
CNS(=O)(=O)c1ccc(OCC2CCC2)c(C(=O)N2CCN(c3ccc(C#N)cc3F)CC2)c1 [compound 510]	0.015 µM
CNS(=O)(=O)c1ccc(OCC(F)(F)F)c(C(=O)N2CCN(c3ccc(C#N)cc3F)CC2)c1 [compound 534]	0.049 µM
CS(=O)(=O)c1ccc(OC2CCCC2)c(C(=O)N2CCN(c3c(F)cc(C#N)cc3F)CC2)c1 [compound 167]	0.016 µM
O=C(c1cc([N+](=O)[O-])ccc1OCCCl)N1CCN(c2ccc(C(F)(F)F)cc2)CC1 [Example 92, [2-(2-Chloro-ethoxy)-5-nitro-phenyl]-[4-(4-trifluoromethyl-phenyl)-piperazin-1-yl]-methanone]	0.05 µM
CC(C)COc1ccc(S(C)(=O)=O)cc1C(=O)N1CCN(c2c(F)cc(C#N)cc2F)CC1 [compound 164]	0.019 µM
CS(=O)(=O)c1ccc(OCC2CCC2)c(C(=O)N2CCN(c3ccc(C#N)c(F)c3)CC2)c1 [compound 137]	0.027 µM
CC(Oc1ccc(S(C)(=O)=O)cc1C(=O)N1CCN(c2cc(F)c(C#N)c(F)c2)CC1)C(F)(F)F (racemic) [compound 262]	0.042 µM
CS(=O)(=O)c1ccc(OC(CF)CF)c(C(=O)N2CCN(c3ccc(C(F)(F)F)cc3C#N)CC2)c1 [compound 194]	0.047 µM
CS(=O)(=O)c1ccc(OCCC(F)(F)F)c(C(=O)N2CCN(c3ccc(C(F)(F)F)c(F)c3)CC2)c1 [compound 116]	0.019 µM
CNS(=O)(=O)c1ccc(OCC2CCC2)c(C(=O)N2CCN(c3ccc(C#N)cc3)CC2)c1 [compound 494]	0.03 µM
CC(C)Oc1ccc(S(C)(=O)=O)cc1C(=O)N1CCN(c2ncc(C(F)(F)F)cc2F)CC1 [compound 437]	0.026 µM
CS(=O)(=O)c1ccc(OC2CCC2)c(C(=O)N2CCN(c3ccc(C(F)(F)F)c(F)c3)CC2)c1 [compound 317]	0.041 µM
CC(C)Oc1ccc(S(C)(=O)=O)cc1C(=O)N1CCN(c2ccc(C(F)F)cc2F)CC1 [compound 400]	0.023 µM
CS(=O)(=O)c1ccc(OCC(F)(F)C(F)F)c(C(=O)N2CCN(c3ccc(C#N)c(F)c3F)CC2)c1 [compound 213]	0.021 µM
CC(Oc1ccc(S(C)(=O)=O)cc1C(=O)N1CCN(c2ccc(C#N)c(F)c2F)CC1)C(F)(F)F (racemic) [compound 207]	0.023 µM
CS(=O)(=O)c1ccc(OCC(F)(F)C(F)F)c(C(=O)N2CCN(c3ccc(C(F)(F)F)cc3)CC2)c1 [compound 211]	0.043 µM
